Laboratory results taken from patent US9101638B2, “Boronic acid derivatives and therapeutic uses thereof” (Rempex Pharmaceuticals, Inc., priority 2013, dated 2015).
Like-named read-outs stand apart in the source and are kept apart here.

How the values were obtained:
ec308 (SHV-5) [1] = assay: Potentiation of aztreonam, strain ec308; format: cell-based; settings: for AZT MPC4 SHV-5 ec308: minimum BLI concentration inhibiting growth with 4 μg/mL aztreonam
EC1010 (CMY-6) [2] = assay: Potentiation of aztreonam, strain EC1010; format: cell-based
KP1009 (CTX-M-15) [3] = assay: Potentiation of aztreonam, strain KP1009; format: cell-based
KP1004 (K-2) = assay: Potentiation of aztreonam, strain KP1004; format: cell-based; settings: for AZT MPC4 K-2 KP1004: minimum BLI concentration inhibiting growth with 4 μg/mL aztreonam
ec302 (TEM-10) [4] = assay: Potentiation of aztreonam, strain ec302; format: cell-based
KP1005 (CTX-M-14) = assay: Potentiation of aztreonam, strain KP1005; format: cell-based
KP1009 (CTX-M-15) [5] = assay: Potentiation of tigemonam, strain KP1009; settings: minimum BLI concentration inhibiting growth with 4 μg/mL tigemonam
ec302 (TEM-10) [6] = assay: Potentiation of tigemonam, strain ec302; format: cell-based
PAM1032/KPC-2 = assay: Biapenem potentiation in PAM1032/KPC-2 (MexAB-OprM overexpressed); format: cell-based, Pseudomonas aeruginosa; settings: BLI potency to decrease biapenem MIC 64-fold, 32 to 0.5 μg/ml; efflux proficient strain
Method: (§1) Efflux of BLIs from Pseudomonas aeruginosa by the MexAB-OprM efflux pump was also evaluated. […] Due to expression of KPC-2 both strains became resistant to biapenem. […] Potency of BLIs to potentiate biapenem in these strains was determined. […] The ratio of MPC64 values for each BLI in PAM1032/KPC-2 (efflux proficient) and PAM1154/KPC-2 (efflux deficient) was determined to generate the Efflux Index (EI).

EC1010 (CMY-6) [7] = format: cell-based
KPC-2 = KPC-2 (Klebsiella pneumoniae, UniProt Q9F663); assay: Inhibition of nitrocefin cleavage by purified KPC-2; format: biochemical; settings: nitrocefin reporter substrate, purified enzyme; read-out: Ki (KPC-2, NCF)
Method: (§2) Purified enzymes were mixed with various concentrations of inhibitors in reaction buffer and incubated for 10 min at room temperature. Nitrocefin was added and substrate cleavage profiles were recorded at 490 nm every 10 sec for 10 min.

PAM1154/KPC-2 = assay: Biapenem potentiation in PAM1154/KPC-2 (MexAB-OprM lacking); format: cell-based, Pseudomonas aeruginosa; settings: for PAM11154/KPC-2 Biapenem MPC64: BLI potency to decrease biapenem MIC 64-fold, 32 to 0.5 μg/ml, efflux deficient strain
Method: as §1

ECL1002 = assay: Potentiation of aztreonam, strain ECL1002; format: cell-based; settings: minimum BLI concentration inhibiting growth with 4 μg/mL aztreonam
ec308 (SHV-5) [8] = assay: Potentiation of tigemonam, strain ec308; format: cell-based; settings: minimum BLI concentration inhibiting growth with 4 μg/mL tigemonam
SHV-12 = SHV-12 (Klebsiella pneumoniae, UniProt P0AD64, E235K/G234S/L31Q); assay: Inhibition of nitrocefin cleavage by purified SHV-12; format: biochemical; settings: nitrocefin reporter substrate, purified enzyme; read-out: Ki (SHV-12, NCF)
Method: as §2

[9] = minimum BLI concentration inhibiting growth with 4 μg/mL tigemonam
[10] = minimum BLI concentration inhibiting growth with 4 μg/mL aztreonam

Chain of KPC-2 (Q9F663 25-293, looked up, species assumed): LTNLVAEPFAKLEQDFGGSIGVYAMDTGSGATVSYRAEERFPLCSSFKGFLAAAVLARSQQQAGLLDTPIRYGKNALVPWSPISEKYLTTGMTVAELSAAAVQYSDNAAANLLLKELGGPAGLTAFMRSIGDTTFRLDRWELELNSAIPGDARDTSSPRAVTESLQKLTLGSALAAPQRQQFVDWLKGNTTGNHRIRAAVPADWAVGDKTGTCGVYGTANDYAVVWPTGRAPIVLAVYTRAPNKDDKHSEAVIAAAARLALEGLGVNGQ
Chain of SHV-12 (P0AD64 22-286 L31Q/G234S/E235K): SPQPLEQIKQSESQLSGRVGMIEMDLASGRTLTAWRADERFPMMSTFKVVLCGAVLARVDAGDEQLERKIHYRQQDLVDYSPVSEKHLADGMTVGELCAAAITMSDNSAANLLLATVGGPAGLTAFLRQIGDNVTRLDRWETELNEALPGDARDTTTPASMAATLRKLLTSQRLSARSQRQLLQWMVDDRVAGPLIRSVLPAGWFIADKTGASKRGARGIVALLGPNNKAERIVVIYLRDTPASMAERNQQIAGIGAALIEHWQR

Structure (SMILES)	TIG MPC4 CTX-M-15 KP1009 (KP1009 (CTX-M-15) [5])	AZT MPC4 SHV-5 ec308 (ec308 (SHV-5) [1])	AZT MPC4 CMY-6 EC1010 (EC1010 (CMY-6) [2])	PAM1032/KPC-2 Biapenem MPC64 (PAM1032/KPC-2)	TIG MPC4 CMY-6 EC1010 (EC1010 (CMY-6) [7])	Ki (KPC-2)	PAM11154/KPC-2 Biapenem MPC64 (PAM1154/KPC-2)	AZT MPC4 CTX-M-15 KP1009 (KP1009 (CTX-M-15) [3])	AZT MPC4 K-2 KP1004 (KP1004 (K-2))	AZT MPC4 TEM-10 ec302 (ec302 (TEM-10) [4])	AZT MPC4 ECL1002 (ECL1002)	AZT MPC4 CTX-M-14 KP1005 (KP1005 (CTX-M-14))	TIG MPC4 SHV-5 ec308 (ec308 (SHV-5) [8])	Ki (SHV-12)	TIG MPC4 TEM-10 ec302 (ec302 (TEM-10) [6])	also measured
C[C@H]1[C@H](NC(=O)/C(=N\OC(C)(C)C(=O)O)c2csc(N)n2)C(=O)N1S(=O)(=O)O [Aztreonam, reference compound]																MIC (ec308 (SHV-5) [1]; read-out: Aztreonam MIC): > 128 µg/mL; MIC (EC1010 (CMY-6) [2]; read-out: Aztreonam MIC): > 128 µg/mL; MIC (KP1009 (CTX-M-15) [3]; read-out: Aztreonam MIC): > 128 µg/mL; MIC (KP1004 (K-2); read-out: Aztreonam MIC): > 128 µg/mL; MIC (ec302 (TEM-10) [4]; read-out: Aztreonam MIC): 128 µg/mL; MIC (KP1005 (CTX-M-14); read-out: Aztreonam MIC): > 128 µg/mL
CN(C)C(=O)CC(=O)N[C@H]1Cc2cccc(C(=O)O)c2OB1O [Compound 10, (R)-3-(3-(dimethylamino)-3-oxopropanamido)-2-hydroxy-3,4-dihydro-2H-benzo[e][1,2]oxaborinine-8-carboxylic acid]	X (X = MIC of less than 1 μg/mL)	Y (Y = MIC of 1 μg/mL to 10 μg/mL)	X (key: X = MIC of less than 1 μg/mL; Y = MIC of 1 μg/mL to 10 μg/mL; Z = MIC of greater than 10 μg/mL)	Z (Z Greater than 40)	X (key: X = MIC of less than 1 μg/mL; Y = MIC of 1 μg/mL to 10 μg/mL; Z = MIC of greater than 10 μg/mL)	> 10 nM	Y (Y = 10 to 40)	X (key: X = MIC of less than 1 μg/mL; Y = MIC of 1 μg/mL to 10 μg/mL; Z = MIC of greater than 10 μg/mL)	X (X = MIC of less than 1 μg/mL)	Y (key: X = MIC of less than 1 μg/mL; Y = MIC of 1 μg/mL to 10 μg/mL; Z = MIC of greater than 10 μg/mL)	Y (Y = MIC of 1 μg/mL to 10 μg/mL)	Y (key: X = MIC of less than 1 μg/mL; Y = MIC of 1 μg/mL to 10 μg/mL; Z = MIC of greater than 10 μg/mL)	Y (Y = MIC of 1 μg/mL to 10 μg/mL)	< 1 nM		TIG MPC4 TEM-10 ec302 (ec302 (TEM-10) [6]; [9]): Z (Z = MIC of greater than 10 μg/mL)
Nc1nnc(C(=O)N[C@H]2Cc3cccc(C(=O)O)c3OB2O)s1 [Compound 19, (R)-3-(5-amino-1,3,4-thiadiazole-2-carboxamido)-2-hydroxy-3,4-dihydro-2H-benzo[e][1,2]oxaborinine-8-carboxylic acid]	Y (Y = MIC of 1 μg/mL to 10 μg/mL)	X (X = MIC of less than 1 μg/mL)			X (key: X = MIC of less than 1 μg/mL; Y = MIC of 1 μg/mL to 10 μg/mL; Z = MIC of greater than 10 μg/mL)	> 10 nM		Y (key: X = MIC of less than 1 μg/mL; Y = MIC of 1 μg/mL to 10 μg/mL; Z = MIC of greater than 10 μg/mL)	Y (Y = MIC of 1 μg/mL to 10 μg/mL)	Y (key: X = MIC of less than 1 μg/mL; Y = MIC of 1 μg/mL to 10 μg/mL; Z = MIC of greater than 10 μg/mL)	Y (Y = MIC of 1 μg/mL to 10 μg/mL)	Y (key: X = MIC of less than 1 μg/mL; Y = MIC of 1 μg/mL to 10 μg/mL; Z = MIC of greater than 10 μg/mL)	X (X = MIC of less than 1 μg/mL)	< 1 nM		
Cn1nnnc1SCC(=O)N[C@H]1Cc2cccc(C(=O)O)c2OB1O [Compound 2, (R)-2-hydroxy-3-(2-(1-methyl-1H-tetrazol-5-ylthio)acetamido)-3,4-dihydro-2H-benzo[e][1,2]oxaborinine-8-carboxylic acid]	Y (Y = MIC of 1 μg/mL to 10 μg/mL)	X (X = MIC of less than 1 μg/mL)	Y (key: X = MIC of less than 1 μg/mL; Y = MIC of 1 μg/mL to 10 μg/mL; Z = MIC of greater than 10 μg/mL)	Z (Z Greater than 40)	X (key: X = MIC of less than 1 μg/mL; Y = MIC of 1 μg/mL to 10 μg/mL; Z = MIC of greater than 10 μg/mL)		Y (Y = 10 to 40)	Y (key: X = MIC of less than 1 μg/mL; Y = MIC of 1 μg/mL to 10 μg/mL; Z = MIC of greater than 10 μg/mL)	Y (Y = MIC of 1 μg/mL to 10 μg/mL)	Y (key: X = MIC of less than 1 μg/mL; Y = MIC of 1 μg/mL to 10 μg/mL; Z = MIC of greater than 10 μg/mL)	Y (Y = MIC of 1 μg/mL to 10 μg/mL)	X (key: X = MIC of less than 1 μg/mL; Y = MIC of 1 μg/mL to 10 μg/mL; Z = MIC of greater than 10 μg/mL)	X (X = MIC of less than 1 μg/mL)	< 1 nM	Y (key: X = MIC of less than 1 μg/mL; Y = MIC of 1 μg/mL to 10 μg/mL; Z = MIC of greater than 10 μg/mL)	
O=C(CSC(F)(F)F)N[C@H]1Cc2cccc(C(=O)O)c2OB1O [Compound 1, (R)-2-hydroxy-3-(2-(trifluoromethylthio)acetamido)-3,4-dihydro-2H-benzo[e][1,2]oxaborinine-8-carboxylic acid]	Y (Y = MIC of 1 μg/mL to 10 μg/mL)	X (X = MIC of less than 1 μg/mL)		Z (Z Greater than 40)					Y (Y = MIC of 1 μg/mL to 10 μg/mL)		Y (Y = MIC of 1 μg/mL to 10 μg/mL)		X (X = MIC of less than 1 μg/mL)	< 1 nM	Z (key: X = MIC of less than 1 μg/mL; Y = MIC of 1 μg/mL to 10 μg/mL; Z = MIC of greater than 10 μg/mL)	AZT MPC4 CMY-6 EC1010 (EC1010 (CMY-6) [2]; [10]): Y (Y = MIC of 1 μg/mL to 10 μg/mL); TIG MPC4 CMY-6 EC1010 (EC1010 (CMY-6) [7]; [9]): X (X = MIC of less than 1 μg/mL); PAM1154/KPC-2 Biapenem MPC64 (PAM1154/KPC-2): X (key: X = Less than 10; Y = 10 to 40; Z Greater than 40); AZT MPC4 CTX-M-15 KP1009 (KP1009 (CTX-M-15) [3]; [10]): Y (Y = MIC of 1 μg/mL to 10 μg/mL); AZT MPC4 TEM-10 ec302 (ec302 (TEM-10) [4]; [10]): Y (Y = MIC of 1 μg/mL to 10 μg/mL); AZT MPC4 CTX-M-14 KP1005 (KP1005 (CTX-M-14); [10]): Y (Y = MIC of 1 μg/mL to 10 μg/mL)
CN(C)C(=O)C(=O)N[C@H]1Cc2cccc(C(=O)O)c2OB1O [Compound 9, (R)-3-(2-(dimethylamino)-2-oxoacetamido)-2-hydroxy-3,4-dihydro-2H-benzo[e][1,2]oxaborinine-8-carboxylic acid]	Y (Y = MIC of 1 μg/mL to 10 μg/mL)	X (X = MIC of less than 1 μg/mL)	Y (key: X = MIC of less than 1 μg/mL; Y = MIC of 1 μg/mL to 10 μg/mL; Z = MIC of greater than 10 μg/mL)		Y (key: X = MIC of less than 1 μg/mL; Y = MIC of 1 μg/mL to 10 μg/mL; Z = MIC of greater than 10 μg/mL)	> 10 nM		Y (key: X = MIC of less than 1 μg/mL; Y = MIC of 1 μg/mL to 10 μg/mL; Z = MIC of greater than 10 μg/mL)	Y (Y = MIC of 1 μg/mL to 10 μg/mL)	Y (key: X = MIC of less than 1 μg/mL; Y = MIC of 1 μg/mL to 10 μg/mL; Z = MIC of greater than 10 μg/mL)	Y (Y = MIC of 1 μg/mL to 10 μg/mL)	Y (key: X = MIC of less than 1 μg/mL; Y = MIC of 1 μg/mL to 10 μg/mL; Z = MIC of greater than 10 μg/mL)	Y (Y = MIC of 1 μg/mL to 10 μg/mL)		Z (key: X = MIC of less than 1 μg/mL; Y = MIC of 1 μg/mL to 10 μg/mL; Z = MIC of greater than 10 μg/mL)	
